Experimental data as given in patent US8445466B2, “Stable aqueous compositions comprising amide-protected bioactive creatine species and uses thereof” (priority 2010, dated 2013).

What was measured:
[1] = Conversion of creatine to creatinine in aqueous solutions; assay type: physicochemical; conditions: aqueous solution 0.250 mg/mL
[2] = system: patients with idiopathic PD; conditions: 20 g/d for the first 5 days and 5 g/d thereafter, 24 sessions of resistance training; cited from earlier work
[3] = Stability of creatyl-L-glutamine formulations on storage in glass vials, HPLC assay of C-L-G and creatinine; assay type: physicochemical
Description: Specifically exemplified herein are three different formulations prepared using stable creatyl-L-glutamine (C-L-G) at a concentration of 1.00 mg/ml between pH 3.0 to 7.0. These formulations are described below.
The above described formulations were stored in glass vials at room temperature (25° C., 77° F.), at refrigerator temperature (4° C., 39° F.) and at elevated temperature (40° C., 104° F.) in vials. These samples were assayed by HPLC at periodic intervals for minimum of 60 days for creatyl-L-glutamine (C-L-G) and creatinine (degradation product of creatine) content. The % recovery results are presented below.

[4] = cited from earlier work
[5] = system: young adult, vegetarian subjects; conditions: oral, 5 grams daily for six weeks, 45 subjects; cited from earlier work
[6] = system: person with myasthenia gravis; conditions: 5 grams daily with resistance training 3× per week for 15 weeks; cited from earlier work
[7] = system: patients with McArdle disease; conditions: cited from earlier work
[8] = system: small cohorts of athletes; conditions: oral; short term (5 days), medium term (9 weeks) and long term (up to 5 years); cited from earlier work
[9] = system: Division IA college football players; conditions: up to 21-months; 15.75 g/day for five days, average 5 g/day thereafter; cited from earlier work
[10] = cited from earlier work; remark: listed apart in the source
[11] = system: highly trained adolescent (mean age 16) fin swimmers; conditions: five days of supplementation; cited from earlier work

Question: What does the source list for `CN(CC(=O)O)C(=N)N.O` [Creatine Monohydrate, creatine monohydrate]?
Answer: COP Assay ([1]; pH 3.0, 25 C.°, 39 Days): 0.072 mg/mL; Creatinine ([1]; pH 3.0, 25 C.°, 39 Days): 0.154 mg/mL; COP Assay ([1]; pH 3.0, 25 C.°, 3 day): 0.219 mg/ml mg/mL; Creatinine ([1]; pH 3.0, 25 C.°, 3 day): 0.026 mg/mL; COP Assay ([1]; pH 3.0, 25 C.°, 10 days): 0.214 mg/mL; Creatinine ([1]; pH 3.0, 25 C.°, 10 days): 0.072 mg/ml mg/mL; COP Assay ([1]; pH 3.0, 25 C.°, 21 days): 0.151 mg/mL; Creatinine ([1]; pH 3.0, 25 C.°, 21 days): 0.111 mg/mL; COP Assay ([1]; pH 3.0, 25 C.°, INITIAL): 0.245 mg/mL; Creatinine ([1]; pH 3.0, 25 C.°, INITIAL): 0.000 mg/mL; COP Assay ([1]; pH 3.0, 40 C.°, 39 Days): 0.030 mg/mL; Creatinine ([1]; pH 3.0, 40 C.°, 39 Days): 0.186 mg/mL; COP Assay ([1]; pH 3.0, 40 C.°, 3 day): 0.091 mg/ml mg/mL; Creatinine ([1]; pH 3.0, 40 C.°, 3 day): 0.125 mg/mL; COP Assay ([1]; pH 3.0, 40 C.°, 10 days): 0.036 mg/mL; Creatinine ([1]; pH 3.0, 40 C.°, 10 days): 0.177 mg/ml mg/mL; COP Assay ([1]; pH 3.0, 40 C.°, 21 days): 0.029 mg/mL; Creatinine ([1]; pH 3.0, 40 C.°, 21 days): 0.186 mg/mL; COP Assay ([1]; pH 3.0, 40 C.°, INITIAL): 0.245 mg/mL; Creatinine ([1]; pH 3.0, 40 C.°, INITIAL): 0.000 mg/mL; COP Assay ([1]; pH 7.0, 40 C.°, 31 Days): 0.251 mg/mL; Creatinine ([1]; pH 7.0, 40 C.°, 31 Days): 0.068 mg/mL; COP Assay ([1]; pH 7.0, 40 C.°, 3 day): 0.242 mg/ml mg/mL; Creatinine ([1]; pH 7.0, 40 C.°, 3 day): 0.008 mg/mL; COP Assay ([1]; pH 7.0, 40 C.°, INITIAL): 0.257 mg/mL; Creatinine ([1]; pH 7.0, 40 C.°, INITIAL): 0.000 mg/mL; biceps curl strength [2]: significantly improved; chest press strength [2]: significantly improved

Question: Which “time composition is stable” value ([3]; elevated temperature (40° C., 104° F.)) does the source give for `CN(CC(=O)N[C@@H](CCC(N)=O)C(=O)O)C(=N)N` [creatyl-L-glutamine] here?
Answer: Its value is “more than 30 days”.

Question: And the “time aqueous solutions remain stable” value ([3]; refrigerator temperature (4° C., 39° F.))?
Answer: The value was “more than 90 days”.

Question: What about the “time aqueous solutions remain stable” value ([3]; room temperature (25° C., 77° F.)) of the same molecule?
Answer: Its value is “more than 90 days”.

Question: With “disodium creatine phosphate tetrahydrate” as the molecule, how does the “Creatine Monohydrate” value ([1]; pH 3.0, 25 C.°, 39 Days) read?
Answer: Its value is 0.031 mg/mL.

Question: What about the Creatinine ([1]; pH 3.0, 25 C.°, 39 Days) of the same molecule?
Answer: The Creatinine was 0.069 mg/mL.

Question: What about the “Creatine Monohydrate” value ([1]; pH 3.0, 25 C.°, 3 day) of the same molecule?
Answer: Its value is 0.095 mg/mL.

Question: What about the Creatinine ([1]; pH 3.0, 25 C.°, 3 day) of the same molecule?
Answer: Its Creatinine is 0.014 mg/mL.

Question: And the “Creatine Monohydrate” value ([1]; pH 3.0, 25 C.°, 10 days)?
Answer: Its value is 0.092 mg/mL.

Question: What about the Creatinine ([1]; pH 3.0, 25 C.°, 10 days) of the same molecule?
Answer: Its Creatinine is 0.034 mg/mL.

Question: And the “Creatine Monohydrate” value ([1]; pH 3.0, 25 C.°, 21 days)?
Answer: The value was 0.065 mg/mL.

Question: What about the Creatinine ([1]; pH 3.0, 25 C.°, 21 days) of the same molecule?
Answer: Its Creatinine is 0.050 mg/ml mg/mL.

Question: What about the “Creatine Monohydrate” value ([1]; pH 3.0, 25 C.°, INITIAL) of the same molecule?
Answer: The value was 0.000 mg/ml mg/mL.

Question: What about the Creatinine ([1]; pH 3.0, 25 C.°, INITIAL) of the same molecule?
Answer: Its Creatinine is 0.000 mg/mL.

Question: What about the “Creatine Monohydrate” value ([1]; pH 3.0, 40 C.°, 39 Days) of the same molecule?
Answer: Its value is 0.012 mg/ml mg/mL.

Question: What about the Creatinine ([1]; pH 3.0, 40 C.°, 39 Days) of the same molecule?
Answer: The Creatinine was 0.081 mg/mL.

Question: And the “Creatine Monohydrate” value ([1]; pH 3.0, 40 C.°, 3 day)?
Answer: Its value is 0.042 mg/mL.

Question: What about the Creatinine ([1]; pH 3.0, 40 C.°, 3 day) of the same molecule?
Answer: The Creatinine was 0.054 mg/mL.

Question: What about the “Creatine Monohydrate” value ([1]; pH 3.0, 40 C.°, 10 days) of the same molecule?
Answer: Its value is 0.017 mg/mL.

Question: What about the Creatinine ([1]; pH 3.0, 40 C.°, 10 days) of the same molecule?
Answer: The Creatinine was 0.086 mg/mL.

Question: What about the “Creatine Monohydrate” value ([1]; pH 3.0, 40 C.°, 21 days) of the same molecule?
Answer: Its value is 0.011 mg/mL.

Question: What about the Creatinine ([1]; pH 3.0, 40 C.°, 21 days) of the same molecule?
Answer: The Creatinine was 0.080 mg/ml mg/mL.

Question: What about the “Creatine Monohydrate” value ([1]; pH 3.0, 40 C.°, INITIAL) of the same molecule?
Answer: Its value is 0.004 mg/mL.

Question: What about the Creatinine ([1]; pH 3.0, 40 C.°, INITIAL) of the same molecule?
Answer: Its Creatinine is 0.000 mg/mL.

Question: What about the “Creatine Monohydrate” value ([1]; pH 7.0, 25 C.°, 39 Days) of the same molecule?
Answer: The value was 0.089 mg/mL.

Question: What about the Creatinine ([1]; pH 7.0, 25 C.°, 39 Days) of the same molecule?
Answer: Its Creatinine is 0.000 mg/mL.

Question: And the Creatinine ([1]; pH 7.0, 25 C.°, 3 day)?
Answer: The Creatinine was 0.000 mg/mL.

Question: And the “Creatine Monohydrate” value ([1]; pH 7.0, 25 C.°, 10 days)?
Answer: The value was 0.041 mg/mL.

Question: And the Creatinine ([1]; pH 7.0, 25 C.°, 10 days)?
Answer: Its Creatinine is 0.000 mg/mL.

Question: What about the “Creatine Monohydrate” value ([1]; pH 7.0, 25 C.°, 21 days) of the same molecule?
Answer: Its value is 0.069 mg/mL.

Question: What about the Creatinine ([1]; pH 7.0, 25 C.°, 21 days) of the same molecule?
Answer: The Creatinine was 0.000 mg/ml mg/mL.

Question: And the “Creatine Monohydrate” value ([1]; pH 7.0, 25 C.°, INITIAL)?
Answer: The value was 0.00 mg/mL.

Question: What about the Creatinine ([1]; pH 7.0, 25 C.°, INITIAL) of the same molecule?
Answer: Its Creatinine is 0.000 mg/mL.

Question: And the “Creatine Monohydrate” value ([1]; pH 7.0, 40 C.°, 39 Days)?
Answer: The value was 0.108 mg/mL.

Question: What about the Creatinine ([1]; pH 7.0, 40 C.°, 39 Days) of the same molecule?
Answer: The Creatinine was 0.030 mg/mL.

Question: What about the “Creatine Monohydrate” value ([1]; pH 7.0, 40 C.°, 3 day) of the same molecule?
Answer: Its value is 0.042 mg/mL.

Question: What about the Creatinine ([1]; pH 7.0, 40 C.°, 3 day) of the same molecule?
Answer: The Creatinine was 0.004 mg/mL.

Question: And the “Creatine Monohydrate” value ([1]; pH 7.0, 40 C.°, 10 days)?
Answer: The value was 0.114 mg/mL.

Question: And the Creatinine ([1]; pH 7.0, 40 C.°, 10 days)?
Answer: The Creatinine was 0.012 mg/mL.

Question: And the “Creatine Monohydrate” value ([1]; pH 7.0, 40 C.°, 21 days)?
Answer: The value was 0.122 mg/mL.

Question: What about the Creatinine ([1]; pH 7.0, 40 C.°, 21 days) of the same molecule?
Answer: The Creatinine was 0.020 mg/ml mg/mL.

Question: What about the “Creatine Monohydrate” value ([1]; pH 7.0, 40 C.°, INITIAL) of the same molecule?
Answer: The value was 0.00 mg/mL.

Question: What about the Creatinine ([1]; pH 7.0, 40 C.°, INITIAL) of the same molecule?
Answer: The Creatinine was 0.000 mg/mL.

Question: Which results are given for `CN(CC(=O)O)C(=N)N` [creatine, 2-(carbamimidoyl-methyl-amino) acetic acid]?
Answer: average increase in muscle strength, greater than following placebo ingestion ([4]; 22 published studies, during resistance training): 8%; average increase in muscle strength following creatine supplementation during resistance training ([4]; 22 published studies, placebo 12%): 20%; average increase in weightlifting performance, greater than following placebo ingestion ([4]; during resistance training): 14%; average increase in weightlifting performance (maximal repetitions at a given percent of maximal strength) ([4]; during resistance training, placebo 12%): 26%; adverse health effect ([4]; short- or long-term creatine supplementations): no adverse health effect; intelligence (Raven's Advanced Progressive Matrices) [5]: significantly improves; working memory (backward digit span) [5]: significantly improves; improved peak strength [6]: up to 37%; increase in body weight [6]: 7%; increase in fat free mass [6]: 4%; skeletal muscle function [7]: improves; adverse effects on renal function [8]: No adverse effects; adverse effect in long-term supplementation [9]: No adverse effect; degradation in the GI tract into creatinine, estimated rate ([10]; GI tract): ~0.1 g of a 5 g dose per hour; non-enzymatic conversion into creatinine ([10]; typical 70 kg individual): approximately 1.7 % daily; dynamic strength [11]: enhances; performance in consecutive maximal swims [11]: improves
